Reference: the supplement of paper PMC11451515

Tests used:
Details in all cases: 48 h
NOMO1 [1] = experiment: cell viability relative to DMSO control; higher = less cytotoxic
Method in brief: (§1)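 NOMO1, SEM and P12-Ichikawa leukemia cells spent at least four passages adapting to each medium before use. They were seeded at 500 cells/well (NOMO1, SEM) or 1000 cells/well (P12-Ichikawa) in 5 μl in 1536-well plates and pin-dosed with library compounds in DMSO at 11 threefold steps from 47 μM down to 0.79 nM. After 48 h at 37°C, CellTiter-Glo One luminescence was read. Viability is reported as a percentage of the DMSO wells on each plate, with cell-free wells as background.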

P12-Ichikawa [2] = experiment: as above
Method in brief: as §1

SEM cells [3] = experiment: as above
Method in brief: as §1

NOMO1 [4] = experiment: AUC of viability dose-response curve (% viability x log10 dose units); higher = less sensitive
Method in brief: (§2)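 Library compounds in DMSO were applied for 48 h at 37°C at 11 threefold doses (47 μM to 0.79 nM) to medium-adapted leukemia cells in 1536-well plates holding 500 or 1000 cells/well. Luminescence from CellTiter-Glo One was normalised plate by plate against DMSO and cell-free wells. Area under the curve came from trapezoidal integration of a log-logistic fit, after scaling curves that rose above full viability and discarding those that failed quality control. The fit had four parameters and used log10 doses.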

P12-Ichikawa [5] = experiment: as above
Method in brief: as §2

SEM cells [6] = experiment: as above
Method in brief: as §2

CCOC(=O)C(C)OC1=CC=CC2=C1\C=C/N(CC(=O)NC3=CC=C4OCCOC4=C3)C2=O (centres undefined)
cell viability [%]
Details	NOMO1 [1]	P12-Ichikawa [2]	SEM cells [3]
HPLM + 10% dialyzed FBS, 0.000781 µM	82.7	89.3	77.7
HPLM + 10% dialyzed FBS, 0.00234 µM	96.6	97.6	85.4
HPLM + 10% dialyzed FBS, 0.00702 µM	94.4	97.9	92.1
HPLM + 10% dialyzed FBS, 0.0211 µM	97.2	53.9	93
HPLM + 10% dialyzed FBS, 0.0632 µM	90.8	101	102
HPLM + 10% dialyzed FBS, 0.19 µM	98.5	106	92.3
HPLM + 10% dialyzed FBS, 0.569 µM	99.8	95.5	92.4
HPLM + 10% dialyzed FBS, 1.71 µM	94.7	97.5	97.4
HPLM + 10% dialyzed FBS, 5.12 µM	80.5	90.5	103
HPLM + 10% dialyzed FBS, 15.4 µM	81.8	101	100
HPLM + 10% dialyzed FBS, 46.1 µM	97.2	108	102
RPMI 5 mM glucose + 10% FBS, 0.000781 µM	81.7	89.6	80.1
RPMI 5 mM glucose + 10% FBS, 0.00234 µM	89.4	97.6	87.8
RPMI 5 mM glucose + 10% FBS, 0.00702 µM	101	97.9	88
RPMI 5 mM glucose + 10% FBS, 0.0211 µM	96.8	91.7	88
RPMI 5 mM glucose + 10% FBS, 0.0632 µM	91	98.6	93.2
RPMI 5 mM glucose + 10% FBS, 0.19 µM	88.8	103	90.2
RPMI 5 mM glucose + 10% FBS, 0.569 µM	96.7	103	93.5
RPMI 5 mM glucose + 10% FBS, 1.71 µM	87.8	91.2	95
RPMI 5 mM glucose + 10% FBS, 5.12 µM	89.4	87.2	109
RPMI 5 mM glucose + 10% FBS, 15.4 µM	89.5	111	98.1
RPMI 5 mM glucose + 10% FBS, 46.1 µM	87.5	108	92.6
RPMI 5 mM glucose + 10% dialyzed FBS, 0.000781 µM	92.3	88.6	90.1
RPMI 5 mM glucose + 10% dialyzed FBS, 0.00234 µM	89.8	88.2	94.9
RPMI 5 mM glucose + 10% dialyzed FBS, 0.00702 µM	98.2	91.5	102
RPMI 5 mM glucose + 10% dialyzed FBS, 0.0211 µM	92.2	88.5	89
RPMI 5 mM glucose + 10% dialyzed FBS, 0.0632 µM	94.6	85.7	85.4
RPMI 5 mM glucose + 10% dialyzed FBS, 0.19 µM	92.3	98.2	98
RPMI 5 mM glucose + 10% dialyzed FBS, 0.569 µM	94.9	92.2	99.2
RPMI 5 mM glucose + 10% dialyzed FBS, 1.71 µM	88.8	89.8	104
RPMI 5 mM glucose + 10% dialyzed FBS, 5.12 µM	74.6	90.4	99.1
RPMI 5 mM glucose + 10% dialyzed FBS, 15.4 µM	91.9	92.5	88.2
RPMI 5 mM glucose + 10% dialyzed FBS, 46.1 µM	109	101	112

AUC of viability dose-response curve
Details	NOMO1 [4]	P12-Ichikawa [5]	SEM cells [6]
HPLM + 10% dialyzed FBS	441	442	453
RPMI 5 mM glucose + 10% FBS	434	452	441
RPMI 5 mM glucose + 10% dialyzed FBS	442	436	443

Cc1ccc([S+](=O)([O-])OCC(=O)Nc2ccc(C(=O)O)c(O)c2)cc1
cell viability [%]
Details	NOMO1 [1]	P12-Ichikawa [2]	SEM cells [3]
HPLM + 10% dialyzed FBS, 0.000781 µM	141	106	101
HPLM + 10% dialyzed FBS, 0.00234 µM	123	117	97.1
HPLM + 10% dialyzed FBS, 0.00702 µM	121	122	127
HPLM + 10% dialyzed FBS, 0.0211 µM	117	126	118
HPLM + 10% dialyzed FBS, 0.0632 µM	124	126	125
HPLM + 10% dialyzed FBS, 0.19 µM	145	133	106
HPLM + 10% dialyzed FBS, 0.569 µM	128	120	125
HPLM + 10% dialyzed FBS, 1.71 µM	132	136	132
HPLM + 10% dialyzed FBS, 5.12 µM	124	121	136
HPLM + 10% dialyzed FBS, 15.4 µM	146	102	137
HPLM + 10% dialyzed FBS, 46.1 µM	84.1	8.9	80.5
RPMI 5 mM glucose + 10% FBS, 0.000781 µM	122	–	107
RPMI 5 mM glucose + 10% FBS, 0.00234 µM	119	–	109
RPMI 5 mM glucose + 10% FBS, 0.00702 µM	124	–	124
RPMI 5 mM glucose + 10% FBS, 0.0211 µM	139	–	122
RPMI 5 mM glucose + 10% FBS, 0.0632 µM	133	–	138
RPMI 5 mM glucose + 10% FBS, 0.19 µM	150	–	130
RPMI 5 mM glucose + 10% FBS, 0.569 µM	133	–	150
RPMI 5 mM glucose + 10% FBS, 1.71 µM	130	–	142
RPMI 5 mM glucose + 10% FBS, 5.12 µM	118	–	153
RPMI 5 mM glucose + 10% FBS, 15.4 µM	121	–	81.9
RPMI 5 mM glucose + 10% FBS, 46.1 µM	102	–	11.9
RPMI 5 mM glucose + 10% dialyzed FBS, 0.000781 µM	106	–	99.7
RPMI 5 mM glucose + 10% dialyzed FBS, 0.00234 µM	113	–	103
RPMI 5 mM glucose + 10% dialyzed FBS, 0.00702 µM	127	–	134
RPMI 5 mM glucose + 10% dialyzed FBS, 0.0211 µM	121	–	131
RPMI 5 mM glucose + 10% dialyzed FBS, 0.0632 µM	131	–	123
RPMI 5 mM glucose + 10% dialyzed FBS, 0.19 µM	139	–	140
RPMI 5 mM glucose + 10% dialyzed FBS, 0.569 µM	142	–	125
RPMI 5 mM glucose + 10% dialyzed FBS, 1.71 µM	142	–	147
RPMI 5 mM glucose + 10% dialyzed FBS, 5.12 µM	146	–	144
RPMI 5 mM glucose + 10% dialyzed FBS, 15.4 µM	146	–	109
RPMI 5 mM glucose + 10% dialyzed FBS, 46.1 µM	122	–	43.7

AUC of viability dose-response curve
Details	NOMO1 [4]	P12-Ichikawa [5]	SEM cells [6]
HPLM + 10% dialyzed FBS	469	446	458
RPMI 5 mM glucose + 10% FBS	460	469	438
RPMI 5 mM glucose + 10% dialyzed FBS	448	465	455
